Data taken from patent US7659296B2, “Vitamin D receptor modulators” (Eli Lilly and Company, priority 2004, dated 2010).

What was measured:
Assay type in all cases: cell-based
[1] = biological target: T1, RXR-VDR heterodimer (Homo sapiens, UniProt P11473); assay: RXR-VDR heterodimerization (SaOS-2 cells) test; details: Gal-4-RXR-DEF and VP16-VDR-LBD, luciferase reporter
T1 construct: add the Gal-4-RXR-DEF and VP16-VDR-LBD; expressed in transfected cells; host or cells: SaOS-2 cells
T1 sequence (P11473 127-423 limits assumed): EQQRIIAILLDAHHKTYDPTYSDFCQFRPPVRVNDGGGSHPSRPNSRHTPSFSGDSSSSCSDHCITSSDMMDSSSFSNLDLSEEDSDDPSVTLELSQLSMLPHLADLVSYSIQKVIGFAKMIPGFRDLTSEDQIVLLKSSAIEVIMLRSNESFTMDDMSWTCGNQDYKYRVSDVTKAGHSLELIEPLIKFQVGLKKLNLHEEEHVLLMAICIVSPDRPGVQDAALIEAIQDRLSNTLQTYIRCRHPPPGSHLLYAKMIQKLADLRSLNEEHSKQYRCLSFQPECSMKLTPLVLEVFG
T1 sequence (P19793 201-462 partner limits assumed): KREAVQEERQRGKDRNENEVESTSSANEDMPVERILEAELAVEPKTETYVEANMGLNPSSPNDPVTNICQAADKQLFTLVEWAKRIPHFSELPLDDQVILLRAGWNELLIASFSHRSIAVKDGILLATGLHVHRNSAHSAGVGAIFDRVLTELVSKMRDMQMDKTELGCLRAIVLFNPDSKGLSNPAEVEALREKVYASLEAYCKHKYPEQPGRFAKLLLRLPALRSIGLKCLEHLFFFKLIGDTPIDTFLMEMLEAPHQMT
Description: 1. The RXR-VDR heterodimerAssay:
This assay provides the VDR activity of a test compound. It is desirable to have low EC50 values for a compound in this assay. […] Desired assay results are EC50 values less than or equal to 600 nM. Preferred assay results are less than 250 nM, and most preferably less than 150 nM.
(1) Materials and Method for RXR-VDR Heterodimerization Assay Transfection Method: Reagents: FuGENE 6 Transfection Reagent (Roche Cat # 1 814 443); Growth Media: D-MEM High Glucose (Gibco BRL Cat # 11054-020), 10% heat inactivated FBS (Gibco BRL Cat # 10092-147), 1% antibiotic-antimycotic (Ab-Am); (Gibco BRL Cat # 15240-062). Cells: Grow SaOS-2 cells in T-150 cm^2 culture flasks in growth media keeping the density at 5-6×10^5 cells/ml. Passage cells 1:3 twice a week. Add Trypsin EDTA (Gibco BRL Cat # 25300-020) and incubate. Resuspend cells in plating media and transfer into growth media. Wash Media: HBSS Low Glucose Without Phenol Red (Gibco BRL Cat # 14175-095), 1% Ab-Am. Plating Media: D-MEM Low Glucose Without Phenol Red (Gibco BRL Cat # 11054-020), 1% Ab-Am; D-MEM; 10% Stripped FBS (Hyclone Cat# SH30068.03 Lot # AHM9371). Transfection/Treatment Media: D-MEM Low Glucose Without Phenol Red only; T-150 cm^2 culture flask: Use Corning Coastar T-150 cm^2 culture flask (Cat #430825) to grow the cells. Luciferase Assay Reagent: Use Steady-Glo Luciferase Reagent from Promega (Cat # E2550) Consists of: E2533 Assay Substrate, lypholized product and E2543 Assay Buffer. Thaw at room temperature and store. Cell Harvesting/Count: Aspirate media from culture flask, rinse cells with HBSS and aspirate. Add trypsin and incubate. When cells appear detached, resuspend cells in growth media. Transfer into a new flask with fresh growth media for passaging the cells. Plate 96 well plates and two extra plates. Mix the cell suspension using pipette. To count the cells using a Hematocytometer. Plate seeding: Use plating media 10% Stripped FBS in D-MEM Low Glucose, without Phenol Red, 1% Ab-Am. Plate 14 plates @ 165 μl/well. In sterile flask add cell suspension to plating media and mix. Add cells/well. Place the cells in the incubator. Cells should be about 75% confluent prior to transfection. DAY 2: Transfection: Step 1, DNA and Media: Add plain DMEM media to tubes for mixing the DNA; add the Reporter gene pFR-LUC; and add the Gal-4-RXR-DEF and VP16-VDR-LBD. Step 2, FuGENE and Media: Prepare plain DMEM media in a tubes for mixing FuGENE, add FuGENE 6 Transfection Reagent, and incubate. Step 3, FuGENE, DNA and Media Complex: Add FuGENE Media complex from step 2 to DNA Media complex from step 1 and incubate. Step 4, FuGENE, DNA and Media Complex to 96 well plate: Add FuGENE-DNA-Media complex from step 3 to each plate. Incubate. Day 3: Dosing: Treatment preparation. Allow for transfection time. Make a stock solution of the compounds in DMSO and vortex until all the compounds have been dissolved. Further dilute in D-MEM (Low Glucose—without Phenol Red) Add compounds in quadruplicate to give desired final volume then incubate. Day 4: Luciferase Assay: Read the plates after drug treatment. Remove part of media from all the wells and leave remainder. Add Steady-Glo Luciferase Reagent mixture/wells and incubate. Count each well using a Luminescence counter, Top Count NXT by Packard preferably set a delay between plates to reduce the background.

[2] = tested on: KERtr cells (Human skin keratinocyte); assay: Keratinocyte Proliferation Assay; details: BrdU incorporation, 72 h, read-out: Kera. Prolif. IC50
Description: The Keratinocyte Proliferation Assay
This Assay is indicative for the treatment of psoriasis. An acceptable test result is IC50 value of less than or equal to 300 nM. Preferred assay results are IC50 values of less than 100 nM.
KERtr cells (Human skin keratinocyte) are transformed with a retrovirus vector, obtained from ATCC, then are plated in 96-well flat-bottomed plates (3000 cells/well) in 100 μl keratinocyte serum free medium supplemented with bovine pituitary extract in the absence of EGF (Life Technologies, Rockville, Md.) and are incubated at 37° C. for two days. The cells are treated with various concentrations of VDR ligands (ten-fold serial dilution from 10,000 nM to 0.1 nM in triplicate), dissolved in 100 μl keratinocyte serum free medium supplemented with bovine pituitary extract in the absence of EGF and are incubated at 37° C. for 72 h. BrdU (5-bromo-2′-deoxyuridine) incorporation is analyzed as a measure of DNA replication (Cell proliferation ELISA kit, Roche Diagnostics, Indianapolis, Ind.) and absorbance is measured at 405 nm. Potency values (IC50) values were determined as the concentration (nM) of compound that elicited a half-maximal response.

[3] = tested on: rat osteocalcin promoter; assay: OCN (osteocalcin) Promoter Assay; details: RG-15 (ROS17/2.8) cells, luciferase reporter, 48 h treatment
Description: The OCN (osteocalcin) Promoter Assay
The OCN Promoter Assay is an indicator and marker for osteoporosis. Desired assay results are EC50 less than or equal to 325 nM. Preferred assay results are less than 50 nM.
The activation of osteocalcin by VDR ligands is evaluated in a rat osteoblast-like cell line RG-15 (ROS17/2.8) stably expressing rat osteocalcin promoter fused with luciferase reporter gene. The stable cell lines are established as reported before (Activation of Osteocalcin Transcription involves interaction of protein kinase A- and Protein kinase C-dependent pathways. Boguslawski, G., Hale, L. V., Yu, X.-P., Miles, R. R., Onyia, J. E., Santerre R. F., Chandrasekhar, S. J. Biol. Chem. 275, 999-1006, 2000). Confluent RG-15 cells maintained in DMEM/F-12 medium (3:1) containing 5% FBS, 300 μg/ml G418 and at 37° C. under 5% CO2/95% air atmosphere are trypsinized (0.25% trypsin) and plated into white opaque 96-well cell culture plates (25000 cells/well). After 24 h, cells (in DMEM/F-12 medium+2% FBS) are treated with various concentrations of compounds, dissolved in DMSO. The final DMSO concentration remains at 0.01% (v/v). After 48 h treatment, the medium is removed, cells are lysed with 50 μl of lysis buffer (From Luciferase reporter assay system, Roche Diagnostics, Indianapolis, Ind.) and then assayed for luciferase activity using the Luciferase Reporter Gene Assay kit from Boehringer Mannheim as per manufacturer's specifications.

Row | Compound | EC50 [1] | IC50 [2] | EC50 [3]
1 | CCC(CC)(c1ccc(OCC(=O)C(C)(C)C)c(C)c1)c1nc2cc(C(=O)NCC(=O)O)ccc2o1 [Ex 9, [(2-{1-[4-(3,3-Dimethyl-2-oxo-butoxy)-3-methyl-phenyl]-1-ethyl-propyl}-benzooxazole-5-carbonyl)-amino]-acetic acid] | 0.15 µM | > 1 µM | 
2 | CCC(CC)(c1ccc(OCC(=O)C(C)(C)C)c(C)c1)c1nc2cc(C(N)=O)ccc2o1 [Ex 7, 2-{1-[4-(3,3-Dimethyl-2-oxo-butoxy)-3-methyl-phenyl]-1-ethyl-propyl}-benzooxazole-5-carboxylic acid amide] | 0.177 µM | > 1 µM | 
3 | CCC(CC)(c1ccc(OCC(=O)C(C)(C)C)c(C)c1)c1nc2ccc(C(N)=O)cc2o1 [Ex. 2, 2-{1-[4-(3,3-Dimethyl-2-oxo-butoxy)-3-methyl-phenyl]-1-ethyl-propyl}-benzooxazole-6-carboxylic acid amide] | 0.073 µM | > 1 µM | 0.289 µM
4 | CCC(CC)(c1ccc(OCC(=O)C(C)(C)C)c(C)c1)c1nc2ccc(C(=O)O)cc2o1 [Ex. 1, 2-{1-[4-(3,3-dimethyl-2-oxo-butoxy)-3-methyl-phenyl]-1-ethyl-propyl}-benzooxazole-6-carboxylic acid] | 1.12 µM |  | 0.376 µM
5 | CCC(CC)(c1ccc(OCC(=O)C(C)(C)C)c(C)c1)c1nc2cc(C(=O)N(C)C)ccc2o1 [Ex 8, 2-{1-[4-(3,3-Dimethyl-2-oxo-butoxy)-3-methyl-phenyl]-1-ethyl-propyl}-benzooxazole-5-carboxylic acid dimethylamide] | 0.117 µM | > 1 µM | 
6 | CCC(CC)(c1ccc(OCC(=O)C(C)(C)C)c(C)c1)c1nc2cc(C(=O)O)ccc2o1 [Ex. 5, 2-{1-[4-(3,3-Dimethyl-2-oxo-butoxy)-3-methyl-phenyl]-1-ethyl-propyl}-benzooxazole-5-carboxylic acid] | 0.037 µM | > 1 µM | 0.008 µM
7 | CCC(CC)(c1ccc(OCC(O)C(C)(C)C)c(C)c1)c1nc2cc(C(=O)O)ccc2o1 (centres unmarked) [Ex. 6, 2-{1-Ethyl-1-[4-(2-hydroxy-3,3-dimethyl-butoxy)-3-methyl-phenyl]-propyl}-benzooxazole-5-carboxylic acid] | 0.005 µM | 0.036 µM | 
8 | CCC(CC)(c1ccc(OCC(=O)C(C)(C)C)c(C)c1)c1nc2ccc(C(=O)N(C)C)cc2o1 [Ex. 3, 2-{1-[4-(3,3-Dimethyl-2-oxo-butoxy)-3-methyl-phenyl]-1-ethyl-propyl}-benzooxazole-6-carboxylic acid dimethylamide] | 0.701 µM |  | 1.64 µM
9 | CCC(CC)(c1ccc(OCC(=O)C(C)(C)C)c(C)c1)c1nc2ccc(C(=O)NCC(=O)O)cc2o1 [Ex. 4, [(2-{1-[4-(3,3-dimethyl-2-oxo-butoxy)-3-methyl-phenyl]-1-ethyl-propyl}-benzooxazole-6-carbonyl)-amino]-acetic acid] | 0.7 µM |  | 1.17 µM
